According to patent US20260274814A1, “THIENYL COMPOUNDS FOR THE TREATMENT OF A CENTRAL NERVOUS SYSTEM DISEASE OR DISORDER” (Coreterra Therapeutics, Inc., priority 2023, published 2026):
Structures can show the parent of a compound that is named as a salt. Where two headings read alike, the source gives them in different places.

Test system: mice
Experiment: Neuropharmacological Assay (SmartCube): automated behavioral signature of compound-treated mice compared with a database of reference drug classes
Type: in vivo
Details: for minimal effective dose: Mus musculus, ip; for minimal effective dose / MED / MED (minimal effective dose): i.p., if only one dose was tested, that dose is shown
Method in brief: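 Compounds in N-methyl-2-pyrrolidone/polyethylene glycol/propylene glycol were given i.p. 15 min before testing, at 3 doses; values shown are for 3.0 mg/kg. Video-captured behaviour was matched by algorithm against reference drug classes, giving a probability per class. MED: lowest dose reaching ≥45% total activity.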

[1] = minimal effective dose: dose having 45% or more total activity in SmartCube, read-out: MED
[2] = SmartCube probability class, 3.0 mg/kg dose, i.p. 15 min before the behavioral test
[3] = SmartCube probability class, 3.0 mg/kg dose, i.p. 15 min before the behavioral test, hydrochloride, 3 mg/kg
[4] = minimal effective dose: dose having 45% or more total activity in SmartCube
[5] = minimal effective dose: dose having 45% or more total activity in SmartCube, hydrochloride
[6] = dose having 45% or more total activity in SmartCube, read-out: MED (minimal effective dose)
[7] = probability that activity matches this class of agents, 3.0 mg/kg i.p., 15 min before test
[8] = probability that activity matches this class of agents, 3.0 mg/kg i.p., 15 min before test, 3 mg/kg
[9] = dose having 45% or more total activity in SmartCube

| Structure (SMILES) | AG [2] | AN [2] | HL [2] | MS [2] | PS [2] | SH [2] | UK [3] | CE [2] | AD [7] | AG [7] | AN [7] | CE [7] | HL [7] | MS [7] | PS [7] | SH [7] | UK [8] | MED (minimal effective dose) [9] [mpk] | AX [7] | further results |
| --- | --- | --- | --- | --- | --- | --- | --- | --- | --- | --- | --- | --- | --- | --- | --- | --- | --- | --- | --- | --- |
| CNC1Cc2cc(C)sc2C1 (single isomer, unassigned) [Compound 318, N, 2-dimethyl-5,6-dihydro-4H-cyclopenta[b]thiophen-5-amine hydrochloride] | ND (^ <4%) | ND (^ <4%) | ND (^ <4%) | ND (^ <4%) | ND (^ <4%) | ND (^ <4%) | +++ (≥49%) |  |  |  |  |  |  |  |  |  |  |  |  | minimal effective dose [1]: 3 mg/kg; AD [2]: ND (^ <4%); AP [3]: + (≥4%); AX [3]: + (≥4%); CE [3]: ND (^ <4%) |
| CNC1Cc2cc(C)sc2C1 (single isomer, unassigned) [Compound 319, N, 2-dimethyl-5,6-dihydro-4H-cyclopenta[b]thiophen-5-amine hydrochloride] | ND (^ <4%) | ND (^ <4%) | ND (^ <4%) | ND (^ <4%) | ND (^ <4%) | ND (^ <4%) | ND (^ <4%) |  |  |  |  |  |  |  |  |  |  |  |  | AD [2]: ND (^ <4%); AP [3]: ND (^ <4%); AX [3]: ++++ (≥74%); CE [3]: + (≥4%); MED [4]: 3 mpk |
| CNC1Cc2scc(C3CC3)c2C1 (single isomer, unassigned) [Compound 320, 3-cyclopropyl-N-methyl-5,6-dihydro-4H-cyclopenta[b]thiophen-5-amine hydrochloride] | ND (^ <4%) | ND (^ <4%) | ND (^ <4%) | ND (^ <4%) | ND (^ <4%) | ND (^ <4%) | ++ (≥24%) | ND (^ <4%) |  |  |  |  |  |  |  |  |  |  |  | minimal effective dose [1]: > 3 mg/kg; AD [2]: ND (^ <4%); AP [3]: ND (^ <4%); AX [3]: ND (^ <4%) |
| CNC1Cc2scc(C3CC3)c2C1 (single isomer, unassigned) [Compound 321, 3-cyclopropyl-N-methyl-5,6-dihydro-4H-cyclopenta[b]thiophen-5-amine hydrochloride] | ND (^ <4%) | ND (^ <4%) | ND (^ <4%) | ND (^ <4%) | ND (^ <4%) | ND (^ <4%) | ND (^ <4%) | ND (^ <4%) |  |  |  |  |  |  |  |  |  |  |  | AD [2]: ND (^ <4%); AP [3]: + (≥4%); AX [3]: ++++ (≥74%); MED [5]: 3 mpk |
| CNC1COc2c(C3CC3)csc2C1 (single isomer, unassigned) [Compound 324, 3-cyclopropyl-N-methyl-6,7-dihydro-5H-thieno[3,2-b]pyran-6-amine hydrochloride] | ND (^ <4%) | ND (^ <4%) | ND (^ <4%) | ND (^ <4%) | ND (^ <4%) | ND (^ <4%) | ND (^ <4%) | ND (^ <4%) |  |  |  |  |  |  |  |  |  |  |  | minimal effective dose [1]: 3 mg/kg; AP [2]: ND (^ <4%); AX [2]: ND (^ <4%); AD [3]: + (≥4%) |
| CNC1COc2c(C3CC3)csc2C1 (single isomer, unassigned) [Compound 325, 3-cyclopropyl-N-methyl-6,7-dihydro-5H-thieno[3,2-b]pyran-6-amine hydrochloride] | ND (^ <4%) | ND (^ <4%) | ND (^ <4%) | ND (^ <4%) | ND (^ <4%) | ND (^ <4%) | ++ (≥24%) | ND (^ <4%) |  |  |  |  |  |  |  |  |  |  |  | AP [2]: ND (^ <4%); AX [2]: ND (^ <4%); AD [3]: ND (^ <4%); MED [4]: 3 mpk |
| NC1COc2c(C3CC3)csc2C1 (single isomer, unassigned) [Compound 329, 3-cyclopropyl-6,7-dihydro-5H-thieno[3,2-b]pyran-6-amine hydrochloride] | ND (^ <4%) | ND (^ <4%) | ND (^ <4%) | ND (^ <4%) | ND (^ <4%) | ND (^ <4%) | ND (^ <4%) | ND (^ <4%) |  |  |  |  |  |  |  |  |  |  |  | minimal effective dose [1]: < 3 mg/kg; AP [2]: ND (^ <4%); AX [2]: ND (^ <4%); AD [3]: ++++ (≥74%) |
| NC1COc2c(C3CC3)csc2C1 (single isomer, unassigned) [Compound 330, 3-cyclopropyl-6,7-dihydro-5H-thieno[3,2-b]pyran-6-amine hydrochloride] | ND (^ <4%) | ND (^ <4%) | ND (^ <4%) | ND (^ <4%) | ND (^ <4%) | ND (^ <4%) | + (≥4%) | ND (^ <4%) |  |  |  |  |  |  |  |  |  |  |  | AP [2]: ND (^ <4%); AX [2]: ND (^ <4%); AD [3]: ND (^ <4%); MED [5]: >3 mpk |
| CNC1CCc2sc(F)cc2C1 (single isomer, unassigned; enantiomer 1) [Compound 98, 2-fluoro-N-methyl-4,5,6,7-tetrahydrobenzothiophen-5-amine hydrochloride enantiomer 1] |  |  |  |  |  |  |  |  | ND (^ <4%) | ND (^ <4%) | ND (^ <4%) | ND (^ <4%) | ND (^ <4%) | ND (^ <4%) | ND (^ <4%) | ND (^ <4%) | ++ (≥24%) |  |  | minimal effective dose [6]: 3 mg/kg; AP [8]: ++ (≥24%); AX [8]: + (≥4%) |
| CNC1(C)CCc2cscc2C1 (single isomer, unassigned; enantiomer 1) [Compound 101, N, 5-dimethyl-6,7-dihydro-4H-2-benzothiophen-5-amine hydrochloride enantiomer 1] |  |  |  |  |  |  |  |  | ++++ (≥74%) | ND (^ <4%) | ND (^ <4%) | ND (^ <4%) | ND (^ <4%) | ND (^ <4%) |  | ND (^ <4%) |  | 3 | ND (^ <4%) | AP [7]: ND (^ <4%); UK [7]: ND (^ <4%); PS [8]: ND (^ <4%) |
| CNC1CCc2c(C)sc(C(F)(F)F)c2C1 (single isomer, unassigned; enantiomer 1) [Compound 104, N, 1-dimethyl-3-(trifluoromethyl)-4,5,6,7-tetrahydro-2-benzothiophen-5-amine hydrochloride enantiomer 1] |  |  |  |  |  |  |  |  | ND (^ <4%) | ND (^ <4%) | ND (^ <4%) | ND (^ <4%) | ND (^ <4%) | ND (^ <4%) | ND (^ <4%) | ND (^ <4%) | ++ (≥24%) |  | ND (^ <4%) | minimal effective dose [6]: 3 mg/kg; AP [8]: ++ (≥24%) |
| CNC1CCc2c(C(F)(F)F)sc(C)c2C1 (single isomer, unassigned; enantiomer 1) [Compound 106, N, 3-dimethyl-1-(trifluoromethyl)-4,5,6,7-tetrahydro-2-benzothiophen-5-amine hydrochloride enantiomer 1] |  |  |  |  |  |  |  |  |  | ND (^ <4%) | ND (^ <4%) | ND (^ <4%) | ND (^ <4%) | ND (^ <4%) | ND (^ <4%) | ND (^ <4%) | ++ (≥24%) | 3 | ND (^ <4%) | AP [7]: ND (^ <4%); AD [8]: + (≥4%) |
| CNC1CCc2sc(F)cc2C1 (single isomer, unassigned; enantiomer 2) [Compound 99, 2-fluoro-N-methyl-4,5,6,7-tetrahydrobenzothiophen-5-amine hydrochloride enantiomer 2] |  |  |  |  |  |  |  |  | ND (^ <4%) | ND (^ <4%) | ND (^ <4%) | ND (^ <4%) | ND (^ <4%) | ND (^ <4%) | ND (^ <4%) | ND (^ <4%) | +++ (≥49%) | 3 |  | AP [8]: ND (^ <4%); AX [8]: ND (^ <4%) |
| CNC1(C)CCc2cscc2C1 (single isomer, unassigned; enantiomer 2) [Compound 102, N, 5-dimethyl-6,7-dihydro-4H-2-benzothiophen-5-amine hydrochloride enantiomer 2] |  |  |  |  |  |  |  |  | ++++ (≥74%) | ND (^ <4%) | ND (^ <4%) | ND (^ <4%) | ND (^ <4%) | ND (^ <4%) |  | ND (^ <4%) |  | 1 | ND (^ <4%) | AP [7]: ND (^ <4%); UK [7]: ND (^ <4%); PS [8]: + (≥4%) |
| CNC1CCc2c(C)sc(C(F)(F)F)c2C1 (single isomer, unassigned; enantiomer 2) [Compound 105, N, 1-dimethyl-3-(trifluoromethyl)-4,5,6,7-tetrahydro-2-benzothiophen-5-amine hydrochloride enantiomer 2] |  |  |  |  |  |  |  |  | ND (^ <4%) | ND (^ <4%) | ND (^ <4%) | ND (^ <4%) | ND (^ <4%) | ND (^ <4%) | ND (^ <4%) | ND (^ <4%) | ND (^ <4%) | >3 | ND (^ <4%) | AP [8]: ND (^ <4%) |
